The subject of assay [1] is phosphorylation of Cdc2 Y15 (Wee1 substrate) in A427 cells. The assay is described as follows: Phosphorylated Cdc2 MSD Electrochemiluminescence Assay. In kind it is cell-based. Conditions: Homo sapiens. The essentials: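 A427 cells (RPMI 1640, 10% FBS) treated 20 h after plating with 3-fold serial compound dilutions, in duplicate, 37 °C, 5% CO2; total incubation 6 h. Lysate Cdc2 pY15 read by MSD electrochemiluminescence sandwich immunoassay; % remaining signal normalised to DMSO (high) and reference Wee1 inhibitor (low) controls.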

For assay [2], the target named is T1, Wee1 kinase domain (Homo sapiens, UniProt P30291).
T1 construct: Wee1 kinase domain was purchased from Carna (catalog #05-177); purchased Carna 05-177
T1 sequence (P30291 299-569 limits assumed): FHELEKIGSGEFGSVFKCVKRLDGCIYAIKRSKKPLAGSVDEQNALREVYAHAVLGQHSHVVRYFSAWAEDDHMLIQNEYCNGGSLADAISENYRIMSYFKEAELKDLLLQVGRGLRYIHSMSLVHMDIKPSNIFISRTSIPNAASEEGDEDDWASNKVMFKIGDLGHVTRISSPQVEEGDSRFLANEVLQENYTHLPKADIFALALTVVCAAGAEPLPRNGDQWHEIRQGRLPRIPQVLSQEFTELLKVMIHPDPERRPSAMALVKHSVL
Nature of the assay: Wee1 Kinase Biochemical Assay (ADP-Glo). Particulars: 15 uM ATP. The essentials: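 Poly(Lys,Tyr 4:1) phosphorylation by the kinase domain is followed as ADP output (ADP-Glo) after 4 h at 25 °C, with ATP at 15 uM. Values are percent inhibition between vehicle and full-inhibition controls.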
In general terms: ADP-Glo first removes unused ATP, then detects ADP through luciferase.

Where [3] appears, read: A-427, class symbols, read-out: A427 pCDC2 MSD IC50.
The mark [4] stands for this setting: class symbols, 1 nM Wee1 enzyme, 4 hours at 25° C.

Like-named read-outs stand apart in the source and are kept apart here.

Consider `CN1C[C@H]2C[C@@H]1CN2c1ccc(Nc2ncc3c(n2)N(c2cccc(N4CCCC4=O)n2)[C@@H]2CC(C)(C)OC[C@]32C)cc1` [Example 631, 1-(6-((4bR,8aR)-4b,7,7-trimethyl-2-((4-((1R,4R)-5-methyl-2,5-diazabicyclo[2.2.1]heptan-2-yl)phenyl)amino)-4b,7,8,8a-tetrahydropyrano[3′,4′:4,5]pyrrolo[2,3-d]pyrimidin-9(5H)-yl)pyridin-2-yl)pyrrolidin-2-one], for which the IC50 (in general, the midpoint of a concentration-inhibition curve) is 100 to 1000 nM in assay [1] (setting [3]) and under 10 nM in assay [2] (setting [4]).
`CNCc1cccc(N2c3nc(Nc4ccc(N5CCN(C)CC5)cc4)ncc3[C@@]3(C)COC(C)(C)C[C@@H]23)n1` (single isomer, unassigned) [Example 94]: the IC50 in assay [1] (A-427, pCDC2 MSD) is 100 to 1000 nM; in assay [2] (Wee1 kinase domain, ADP-Glo), under 10 nM.
As for `CN1CCC(c2ccc(Nc3ncc4c(n3)N(c3cccc(N5CCOC5=O)n3)[C@@H]3CC(C)(C)OC[C@]43C)cc2)CC1` (single isomer, unassigned) [Example 591], the IC50 in assay [1] (setting [3]) is 100 to 1000 nM; in assay [2] (setting [4]), under 10 nM.
On to `CC1(C)C[C@H]2N(c3cccc(N4CCOC4=O)n3)c3nc(Nc4ccc([C@@H]5CCNC5)cc4)ncc3[C@@]2(C)CO1` (single isomer, unassigned) [Example 607], for which the half-inhibitory concentration (IC50) in assay [1] (setting [3]) is 100 to 1000 nM; in assay [2] (setting [4]) it was under 10 nM.
Turning to `CC1(C)C[C@H]2N(c3cccc([C@H]4CNCCO4)n3)c3nc(Nc4ccc(N5CCOCC5)cc4)ncc3[C@@]2(C)CO1` [Example 737, (4bR,8aR)-4b,7,7-trimethyl-9-(6-((R)-morpholin-2-yl)pyridin-2-yl)-N-(4-morpholinophenyl)-4b,5,7,8,8a,9-hexahydropyrano[3′,4′:4,5]pyrrolo[2,3-d]pyrimidin-2-amine], the IC50 in assay [1] (setting [3]) is 100 to 1000 nM; in assay [2] (setting [4]) it was under 10 nM.
Consider `CNCc1cccc(N2c3nc(Nc4ccc(N5C[C@H]6C[C@@H]5CO6)cc4)ncc3[C@@]3(C)COC(C)(C)C[C@@H]23)n1` (single isomer, unassigned) [Example 44], for which the IC50 in assay [1] (A-427, pCDC2 MSD) was under 100 nM; in assay [2] (Wee1 kinase domain, ADP-Glo), under 10 nM.
As to `CN1CCN(c2cccc(N3c4nc(Nc5ccc(N6CCOCC6)cc5)ncc4[C@@]4(C)COC(C)(C)C[C@@H]34)n2)CC1` (single isomer, unassigned) [Example 535], the IC50 in assay [1] (setting [3]) is 100 to 1000 nM; in assay [2] (setting [4]), under 10 nM.
As for `C[C@H]1COC(=O)N1c1cccc(N2c3nc(Nc4ccc(N5CCN(C)CC5)nc4)ncc3[C@@]3(C)COC(C)(C)C[C@@H]23)n1` (single isomer, unassigned) [Example 241], the 50% inhibitory concentration (IC50) in assay [1] (A-427, pCDC2 MSD) was 100 to 1000 nM; in assay [2] (Wee1 kinase domain, ADP-Glo), under 10 nM.
`C[C@H]1COC(=O)N1c1cccc(N2c3nc(Nc4ccc(N5C[C@@H]6C[C@H]5CN6C)cc4)ncc3[C@@]3(C)COC(C)(C)C[C@@H]23)n1` (single isomer, unassigned) [Example 245]: the IC50 in assay [1] (A-427, pCDC2 MSD) is 100 to 1000 nM; in assay [2] (Wee1 kinase domain, ADP-Glo), under 10 nM.
As for `CC1(C)C[C@H]2N(c3cccc(N=S(C)(C)=O)n3)c3nc(Nc4ccc([C@H]5CCNC5)cc4)ncc3[C@@]2(C)CO1` (single isomer, unassigned) [Example 137], the IC50 in assay [1] (A-427, pCDC2 MSD) was under 100 nM; in assay [2] (Wee1 kinase domain, ADP-Glo) it was under 10 nM.
Turning to `CN=[S@](C)(=O)c1cccc(N2c3nc(Nc4ccc(N5CCN(C)CC5)cc4)ncc3[C@@]3(C)COC(C)(C)C[C@@H]23)n1` (single isomer, unassigned) [Example 766], the IC50 is 100 to 1000 nM in assay [1] (setting [3]) and under 10 nM in assay [2] (setting [4]).
Regarding `C[C@H]1COC(=O)N1c1cccc(N2c3nc(Nc4ccc(C5CNC5)cc4)ncc3[C@@]3(C)COC(C)(C)C[C@@H]23)n1` (single isomer, unassigned) [Example 310], the half-inhibitory concentration (IC50) in assay [1] (A-427, pCDC2 MSD) was 100 to 1000 nM; in assay [2] (Wee1 kinase domain, ADP-Glo), under 10 nM.

Values taken from patent US20260166039A1 (SCHRÖDINGER, INC., priority 2022, published 2026).
